We go through one compound from patent publication US10004718B2, “Erythropoietin expression promoter” (TOHOKU UNIVERSITY, priority 2012, dated 2018).

Data set [1] is described as follows: Plasma concentration in mice after tail vein administration (LC/MS/MS). It counts as in vivo, mouse. On the procedure:
Compound #4 was administered alone to the tail veins of 3 mice (C57BL/6N 8 W, male, 21-25 g). 30 minutes, 1 hour, and 6 hours after the administration, each mouse was cervically dislocated, and 500 μl of blood was collected from the heart. Then, an anticoagulant (10 μl of heparin) was added thereto, and the resulting blood was centrifuged (12000 rpm×20 min, 4° C.) to isolate plasma. DMSO (57 μl) was administered alone to the tail veins of mice, which were in turn used as controls.
The plasma concentration of the compound #4 was quantified using LC/MS/MS constituted by TSQ Quantum Ultra (manufactured by Thermo Fisher Scientific Inc.) and NANOSPACE SI-2 (manufactured by Shiseido Co., Ltd.). Conditions for the selected reaction monitoring (SRM) method of the compound #4 or 2-methyl-5-([2-naphthylamino]carbonyl)-3-thienyl)acetic acid used as an internal standard (hereinafter, referred to as an “internal standard compound”) are “m/z 311.1>116.0 (collision energy, CE=24)” and “m/z 324.1>280.0 (CE=14)”. “Xbridge C18 (150 mm×2.1 mm i.d., 3.5 μm particle size)” was selected as an analytical column. […] The compound #4 and the internal standard compound were detected 8.51 and 9.00 minutes, respectively (upper column of FIG. 10). […] The sample (1 μl) was introduced through a filter to LC/MS/MS to quantify the plasma concentration (μg/ml) of the compound #4 (lower column of FIG. 10).

In a further data set the test system is Hep3B cells. Put plainly: Cytotoxicity, cell survival rate of Hep3B cells (Cell Counting Kit-8). It counts as cell-based, human. On the procedure: The Hep3B cells were seeded at 1×10^4 cells/well to a 24-well cell culture plate and then cultured under normal oxygen (20% O2) for 24 hours. […] After further culture under normal oxygen (20% O2) for 24 hours, the number of live cells was measured using Cell Counting Kit-8 (manufactured by Dojindo Laboratories) to calculate the survival rate of the cells. Hep3B cells cultured in the absence of the compound (DMSO added [1%]) (“DMSO” of FIG. 9) and Hep3B cells cultured in the presence of HIF activators (DMOG [10 μM] and ciclopirox[10 μM]) (“DMOG” and “Ciclopirox”, respectively, of FIG. 9) were used as controls.
A general note: Tetrazolium assays rely on reduction of a dye to a coloured formazan, in cell work by metabolically active cells.

In the case of `O=C(CC(C(=O)O)c1c[nH]c2ccccc12)c1ccc(F)cc1` (stereo not drawn) [compound #4, 4-(4-Fluorophenyl)-2-(1H-indol-3-yl)-4-oxo-butanoic acid], the “time after administration up to which the compound is detected in plasma” value in data set [1] is on record as “at least 6 hours”. For the same compound, in data set [1] (30 minutes after the administration), the detection in plasma result is “detected at a high level”. In the data set on Hep3B cells (0.5 μM compound, 24 hours), the “cell survival rate compared with cells cultured in the absence of the compound (DMSO)” value is reported as “almost the same”. Also, the “cell survival rate compared with cells cultured using 0.5 μM compound” value with Hep3B cells (100 μM compound, 24 hours) is given as “approximately 70%”; in the data set with Hep3B cells (1, 5, or 10 μM compound, 24 hours), “rarely different”. Besides, in the data set on Hep3B cells (concentration ranging from 0 to 10 μM), the cytotoxicity entry is reported as “hardly exhibit cytotoxicity”.
